Experimental data published in publication PMC6199744, “Development of Chemical Proteomics for the Folateome and Analysis of the Kinetoplastid Folateome” (ACS Infectious Diseases, 2018).
Where two headings read alike, the source gives them in different places.

What was measured:
Format in all cases: binding
[1] = target: T1, HeLa cell extract proteins (Homo sapiens, UniProt P26599)
T1 construct: endogenous in cells; host or cells: HeLa cell extract

[2] = target: T2, HeLa cell extract proteins (Homo sapiens, UniProt Q9BVS4)
T2 construct: endogenous in cells; host or cells: HeLa cell extract

[3] = target: T3, HeLa cell extract proteins (Homo sapiens, UniProt P40227)
T3 construct: endogenous in cells; host or cells: HeLa cell extract

[4] = target: T4, HeLa cell extract proteins (Homo sapiens, UniProt P22102)
T4 construct: endogenous in cells; host or cells: HeLa cell extract
T4 sequence (P22102 1-1010): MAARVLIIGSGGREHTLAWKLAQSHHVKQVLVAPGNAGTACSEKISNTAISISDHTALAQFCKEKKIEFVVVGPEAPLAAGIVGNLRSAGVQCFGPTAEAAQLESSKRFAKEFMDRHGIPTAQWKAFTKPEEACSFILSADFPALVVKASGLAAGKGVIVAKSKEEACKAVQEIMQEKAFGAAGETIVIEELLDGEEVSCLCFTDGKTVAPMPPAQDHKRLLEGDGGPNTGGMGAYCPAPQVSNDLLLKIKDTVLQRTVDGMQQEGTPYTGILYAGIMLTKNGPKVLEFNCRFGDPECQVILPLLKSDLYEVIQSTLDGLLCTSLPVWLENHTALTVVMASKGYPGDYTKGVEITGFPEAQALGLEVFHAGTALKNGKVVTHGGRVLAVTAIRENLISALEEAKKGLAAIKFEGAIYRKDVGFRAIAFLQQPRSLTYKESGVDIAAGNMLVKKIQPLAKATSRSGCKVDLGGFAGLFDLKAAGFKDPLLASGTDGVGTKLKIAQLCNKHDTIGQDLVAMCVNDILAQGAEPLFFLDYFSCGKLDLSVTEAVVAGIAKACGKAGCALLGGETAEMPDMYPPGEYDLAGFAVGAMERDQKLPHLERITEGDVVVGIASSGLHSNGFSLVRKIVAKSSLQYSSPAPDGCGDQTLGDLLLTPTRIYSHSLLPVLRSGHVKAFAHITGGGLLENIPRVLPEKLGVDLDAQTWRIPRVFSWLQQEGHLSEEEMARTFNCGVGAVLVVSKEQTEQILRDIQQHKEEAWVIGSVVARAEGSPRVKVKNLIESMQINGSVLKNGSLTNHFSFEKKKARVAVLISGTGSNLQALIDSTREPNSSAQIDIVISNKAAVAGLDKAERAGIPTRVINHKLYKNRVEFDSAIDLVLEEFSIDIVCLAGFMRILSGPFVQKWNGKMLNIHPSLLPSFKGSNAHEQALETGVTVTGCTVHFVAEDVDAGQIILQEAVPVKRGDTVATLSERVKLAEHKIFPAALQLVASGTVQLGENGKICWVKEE

[5] = target: T5, HeLa cell extract proteins (Homo sapiens, UniProt Q93100)
T5 construct: endogenous in cells; host or cells: HeLa cell extract
T5 sequence (Q93100 1-1093): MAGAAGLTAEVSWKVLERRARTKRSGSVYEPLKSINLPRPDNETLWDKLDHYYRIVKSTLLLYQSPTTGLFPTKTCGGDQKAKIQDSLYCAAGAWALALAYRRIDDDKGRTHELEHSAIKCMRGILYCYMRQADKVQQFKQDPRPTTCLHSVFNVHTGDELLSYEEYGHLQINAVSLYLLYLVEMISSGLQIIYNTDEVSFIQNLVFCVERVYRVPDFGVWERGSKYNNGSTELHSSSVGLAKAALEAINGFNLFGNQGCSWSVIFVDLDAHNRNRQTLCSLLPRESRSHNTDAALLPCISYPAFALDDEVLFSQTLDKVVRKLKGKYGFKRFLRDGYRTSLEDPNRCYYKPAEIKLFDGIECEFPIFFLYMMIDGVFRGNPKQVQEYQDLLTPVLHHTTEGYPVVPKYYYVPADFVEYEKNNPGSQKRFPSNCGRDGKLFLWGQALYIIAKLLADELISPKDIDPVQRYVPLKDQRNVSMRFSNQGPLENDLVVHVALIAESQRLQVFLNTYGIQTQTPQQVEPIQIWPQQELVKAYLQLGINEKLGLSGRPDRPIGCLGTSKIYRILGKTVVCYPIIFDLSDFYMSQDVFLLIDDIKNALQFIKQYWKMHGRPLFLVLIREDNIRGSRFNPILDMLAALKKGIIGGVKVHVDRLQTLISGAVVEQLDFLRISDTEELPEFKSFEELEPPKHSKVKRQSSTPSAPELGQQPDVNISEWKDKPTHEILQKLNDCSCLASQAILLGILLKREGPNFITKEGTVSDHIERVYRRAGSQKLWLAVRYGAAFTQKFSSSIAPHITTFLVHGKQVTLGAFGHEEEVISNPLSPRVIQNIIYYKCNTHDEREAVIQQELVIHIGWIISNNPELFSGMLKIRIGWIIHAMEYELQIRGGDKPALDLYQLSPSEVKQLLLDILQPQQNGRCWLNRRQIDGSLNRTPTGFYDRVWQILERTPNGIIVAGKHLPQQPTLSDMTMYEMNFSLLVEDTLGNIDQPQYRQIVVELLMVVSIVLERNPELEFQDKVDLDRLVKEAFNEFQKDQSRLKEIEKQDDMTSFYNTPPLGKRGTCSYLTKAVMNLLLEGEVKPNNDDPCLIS

[6] = target: T6, HeLa cell extract proteins (Homo sapiens, UniProt P22695)
T6 construct: endogenous in cells; host or cells: HeLa cell extract
T6 sequence (P22695 15-453): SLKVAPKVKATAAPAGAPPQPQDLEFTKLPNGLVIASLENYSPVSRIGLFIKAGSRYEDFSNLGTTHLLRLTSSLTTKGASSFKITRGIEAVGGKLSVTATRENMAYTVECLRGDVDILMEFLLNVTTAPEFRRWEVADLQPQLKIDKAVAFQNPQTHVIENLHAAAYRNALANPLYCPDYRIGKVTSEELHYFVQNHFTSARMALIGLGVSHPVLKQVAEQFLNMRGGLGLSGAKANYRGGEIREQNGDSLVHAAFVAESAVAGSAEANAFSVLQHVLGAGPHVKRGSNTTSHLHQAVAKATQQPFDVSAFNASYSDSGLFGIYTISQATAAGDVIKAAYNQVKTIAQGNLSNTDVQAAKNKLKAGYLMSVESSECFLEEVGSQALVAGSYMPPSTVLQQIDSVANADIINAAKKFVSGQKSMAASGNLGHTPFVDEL

T3 sequence (P40227 whole entry): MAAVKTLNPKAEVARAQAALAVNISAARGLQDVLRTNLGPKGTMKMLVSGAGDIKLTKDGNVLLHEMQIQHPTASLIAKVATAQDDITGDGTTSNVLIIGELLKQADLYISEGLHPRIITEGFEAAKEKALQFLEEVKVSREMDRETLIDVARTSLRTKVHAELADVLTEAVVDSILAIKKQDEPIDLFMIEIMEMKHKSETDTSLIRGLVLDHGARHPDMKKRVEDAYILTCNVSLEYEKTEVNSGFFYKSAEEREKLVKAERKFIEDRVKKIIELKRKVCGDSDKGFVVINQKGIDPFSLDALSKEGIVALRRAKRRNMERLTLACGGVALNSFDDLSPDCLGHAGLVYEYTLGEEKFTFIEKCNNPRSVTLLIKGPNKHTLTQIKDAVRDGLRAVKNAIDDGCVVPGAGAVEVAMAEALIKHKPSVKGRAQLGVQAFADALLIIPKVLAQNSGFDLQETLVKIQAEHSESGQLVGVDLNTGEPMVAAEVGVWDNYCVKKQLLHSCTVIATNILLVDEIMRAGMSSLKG
T2 sequence (Q9BVS4 whole entry): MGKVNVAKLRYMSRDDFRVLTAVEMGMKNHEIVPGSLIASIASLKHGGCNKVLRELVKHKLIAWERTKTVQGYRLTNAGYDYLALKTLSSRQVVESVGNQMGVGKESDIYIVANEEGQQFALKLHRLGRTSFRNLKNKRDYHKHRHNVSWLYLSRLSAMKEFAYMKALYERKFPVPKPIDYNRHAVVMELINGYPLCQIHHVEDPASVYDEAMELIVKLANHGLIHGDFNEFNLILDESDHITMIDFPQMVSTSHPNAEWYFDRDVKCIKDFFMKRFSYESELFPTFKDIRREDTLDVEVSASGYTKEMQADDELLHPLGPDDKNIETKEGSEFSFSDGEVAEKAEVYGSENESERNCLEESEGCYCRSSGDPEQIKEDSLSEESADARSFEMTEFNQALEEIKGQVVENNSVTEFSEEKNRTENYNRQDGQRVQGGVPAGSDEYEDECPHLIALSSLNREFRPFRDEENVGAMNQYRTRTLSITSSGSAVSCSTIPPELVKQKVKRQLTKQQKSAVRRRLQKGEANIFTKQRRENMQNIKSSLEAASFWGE
T1 sequence (P26599 whole entry): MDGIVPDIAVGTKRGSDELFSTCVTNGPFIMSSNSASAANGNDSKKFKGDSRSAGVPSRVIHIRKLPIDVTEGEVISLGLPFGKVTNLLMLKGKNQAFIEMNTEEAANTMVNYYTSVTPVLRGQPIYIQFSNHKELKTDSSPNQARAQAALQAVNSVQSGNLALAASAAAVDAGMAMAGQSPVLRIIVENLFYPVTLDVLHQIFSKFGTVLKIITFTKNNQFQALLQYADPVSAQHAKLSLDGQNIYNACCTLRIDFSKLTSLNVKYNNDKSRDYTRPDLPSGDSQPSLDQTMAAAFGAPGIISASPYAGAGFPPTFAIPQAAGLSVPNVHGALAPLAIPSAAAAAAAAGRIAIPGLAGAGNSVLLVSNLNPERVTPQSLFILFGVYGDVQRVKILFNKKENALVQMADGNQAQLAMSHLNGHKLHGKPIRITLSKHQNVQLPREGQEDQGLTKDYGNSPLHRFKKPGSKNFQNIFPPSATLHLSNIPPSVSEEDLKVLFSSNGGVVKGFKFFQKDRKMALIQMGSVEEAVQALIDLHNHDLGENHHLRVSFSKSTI

Row | SMILES | fold changes relative to vehicle control ([1]; HeLa, protein PTBP1) | fold changes relative to vehicle control ([2]; HeLa, protein RIOK2) | fold changes relative to vehicle control ([3]; HeLa, protein CCT6A) | fold changes relative to vehicle control ([4]; protein GART, HeLa) | fold changes relative to vehicle control ([5]; HeLa, protein PHKB) | fold changes relative to vehicle control ([6]; HeLa, protein UQCRC2) | fold changes relative to vehicle control [1] | fold changes relative to vehicle control [2] | fold changes relative to vehicle control [3] | fold changes relative to vehicle control [4] | fold changes relative to vehicle control [5] | fold changes relative to vehicle control [6] | fold changes relative to vehicle control ([1]; protein PTBP1, HeLa) | fold changes relative to vehicle control ([2]; captured protein RIOK2, HeLa) | fold changes relative to vehicle control ([3]; protein CCT6A, HeLa) | fold changes relative to vehicle control ([4]; captured protein GART, HeLa) | fold changes relative to vehicle control ([5]; captured protein PHKB, HeLa)
1 | Nc1nc2c(c(=O)[nH]1)N(C=O)C(CNc1ccc(C(=O)N[C@@H](CCC(=O)O)C(=O)O)cc1)CN2 (stereo partly drawn) [LEU, leucovorin] | 0.98 | 0.84 | 1.01 | 0.66 | 1 | 0.9 | – | – | – | – | – | – | – | – | – | – | –
2 | Nc1nc2[nH]cc(CCc3ccc(C(=O)N[C@@H](CCC(=O)O)C(=O)O)cc3)c2c(=O)[nH]1 [PTX, pemetrexed] | – | – | – | – | – | – | 0.95 | 0.33 | 1.11 | 0.43 | 1.02 | 0.93 | – | – | – | – | –
3 | CCCCCCOc1ccc(Cc2cnc(N)nc2N)cc1 [compound 1] | – | – | – | – | – | 0.97 | – | – | – | – | – | – | 0.97 | 0.94 | 1.39 | 0.94 | 0.86
4 | CCCCCCOc1cccc(Cc2cnc(N)nc2N)c1 [compound 2] | – | – | – | – | – | 0.99 | – | – | – | – | – | – | 1.55 | 0.95 | 2.04 | 1.03 | 1.09
5 | Nc1nc2cccc(-c3ccccc3)c2n1Cc1ccc(Cl)c(Cl)c1 [compound 3] | – | – | – | – | – | 1.01 | – | – | – | – | – | – | 1.08 | 0.95 | 1.04 | 1.1 | 1.19
6 | NCCOCCOCC(=O)Nc1nc2ncc(CNc3ccc(C(=O)NC(CCC(=O)O)C(=O)O)cc3)nc2c(=O)[nH]1 (stereo not drawn) [compound 6] | 1.03 | 0.82 | 1.19 | 0.72 | 1.04 | 0.95 | – | – | – | – | – | – | – | – | – | – | –
7 | NCCCNc1ccc(C(=O)NC(CCC(=O)O)C(=O)O)cc1 (stereo not drawn) [compound 7] | 1.05 | 0.87 | 1.31 | 1.14 | 1.08 | 1.03 | – | – | – | – | – | – | – | – | – | – | –
